Assay results taken from the NIST ThermoML archive (doi:10.1021/je0601457).

Assay: xn = mol fraction of the nth substance listed
Settings: Liquid, linear displacement

COc1cnccn1 [methoxypyrazine] + O=C=O
Settings	mass density [kg/m3]
294.35 K, x1 = 0.107	802
294.55 K, x1 = 0.129	922
295.15 K, x1 = 0.069	809
295.15 K, x1 = 0.919	1033
295.25 K, x1 = 0.015	726
295.25 K, x1 = 0.039	780
295.75 K, x1 = 0.207	911
295.75 K, x1 = 0.379	929
296.35 K, x1 = 0.025	797
296.85 K, x1 = 0.232	981
297.15 K, x1 = 0.919	1109
298.15 K, x1 = 0.379	934
299.55 K, x1 = 0.015	749
299.95 K, x1 = 0.919	1063
303.35 K, x1 = 0.025	778
303.75 K, x1 = 0.015	718
304.35 K, x1 = 0.007	679
305.95 K, x1 = 0.919	1097
306.95 K, x1 = 0.207	945
307.15 K, x1 = 0.069	843
307.55 K, x1 = 0.129	920
307.95 K, x1 = 0.039	778
310.65 K, x1 = 0.107	860
311.95 K, x1 = 0.637	1122
312.55 K, x1 = 0.379	1012
313.55 K, x1 = 0.025	696
314.15 K, x1 = 0.232	987
317.85 K, x1 = 0.919	1085
326.85 K, x1 = 0.129	864
328.45 K, x1 = 0.207	906
330.65 K, x1 = 0.379	982
332.45 K, x1 = 0.232	948
332.65 K, x1 = 0.637	1097
332.65 K, x1 = 0.919	1063
332.85 K, x1 = 0.107	794
348.55 K, x1 = 0.207	866
348.65 K, x1 = 0.379	958
348.95 K, x1 = 0.919	1050
354.15 K, x1 = 0.232	902
354.35 K, x1 = 0.637	1070
366.45 K, x1 = 0.379	933
367.35 K, x1 = 0.637	1055
367.65 K, x1 = 0.207	824
368.95 K, x1 = 0.232	864
